Data reported in patent US8507509B2, “Saturated and insaturated bi- or tricyclic aryloxyacetamine derivatives and their use as fungicides” (Syngenta Crop Protection LLC, priority 2007, dated 2013).

Assays:
Plasmopara viticola = Plasmopara viticola (downy mildew of grapevine), grapevine leaf disk assay, preventive; type: in vivo; settings: foliar, 168 h, 200 ppm, grapevine leaf disks, assessed seven days after inoculation, read-out: control of fungal infection, Plasmopara viticola
Phytophthora infestans = assay: whole plant or invertebrate; type: in vivo; settings: in Solanum lycopersicum, foliar, 96 h, read-out: control of fungal infection, Phytophthora infestans
[1] = tested on: Erysiphe graminis f.sp. tritici; assay: Erysiphe graminis f.sp. tritici (wheat powdery mildew), wheat leaf segment assay, preventive; type: in vivo; settings: Blumeria graminis, foliar, 96 h; 200 ppm; wheat leaf segments; assessed four days after inoculation; read-out: control of fungal infection, Etysiphe graminis f.sp. tritici
Septoria tritici = Septoria tritici (leaf blotch), liquid culture growth inhibition in nutrient broth; type: cell-based; settings: Zymoseptoria tritici; 200 ppm; PDB broth, 24 C; inhibition of growth determined photometrically after 72 hrs; read-out: control of fungal infection, Septoria tritici
Fusarium culmorum = Fusarium culmorum (root rot), liquid culture growth inhibition in nutrient broth; type: cell-based; settings: PDB broth, 24 C, inhibition of growth determined photometrically after 48 hrs, read-out: control of fungal infection, Fusarium culmorum
Description: Mycelia fragments or conidia suspensions of a fungus, prepared either freshly from liquid cultures of the fungus or from cryogenic storage, are directly mixed into nutrient broth. DMSO solutions of the test compound (max. 10 mg/ml) is diluted with 0.025% Tween20 by factor 50 and 10 μl of this solution is pipetted into a microtiter plate (96-well format) and the nutrient broth containing the fungal spores/mycelia fragments is then added to give an end concentration of the tested compound. The test plates are incubated at 24° C. and 96% rH in the dark. The inhibition of fungal growth is determined photometrically after 2-6 days and antifungal activity is calculated.
Fusarium culmorum (root rot): Conidia of the fungus from cryogenic storage were directly mixed into nutrient broth (PDB potato dextrose broth). After placing a (DMSO) solution of the test compounds into a microtiter plate (96-well format) the nutrient broth containing the fungal spores was added. The test plates were incubated at 24 C and the inhibition of growth was determined photometrically after 48 hrs.

Pythium ultimum = Pythium ultimum (Damping off), liquid culture growth inhibition in potato dextrose broth; type: cell-based; settings: Globisporangium ultimum; 20 ppm; potato dextrose broth, 24° C.; inhibition of growth determined photometrically after 48 hours; read-out: control of fungal infection, Pythium ultimum
Septoria nodorum = Septoria nodorum (wheat glume blotch), wheat leaf segment assay, preventive; type: in vivo; settings: Parastagonospora nodorum, foliar, 96 h; 200 ppm; wheat leaf segments; assessed four days after inoculation; read-out: control of fungal infection, Septoria nodorum
Botrytis cinerea = Botrytis cinerea (grey mould), bean leaf disk assay, preventive; type: in vivo; settings: foliar, 96 h, 200 ppm, bean leaf disks, assessed four days after inoculation, read-out: control of fungal infection, Botrytis cinerea

CSC(Oc1ccc2ncc(I)cc2c1)C(=O)NC(C)(C)C=NO (stereo not drawn) [Compound No. 153, N-(2-Hydroxyimino-1,1-dimethyl-ethyl)-2-(3-iodo-quinolin-6-yloxy)-2-methylsulfanyl-acetamide]
≥ 60%: pest or weed control at 200 ppm (Plasmopara viticola) | pest or weed control at 200 ppm (Phytophthora infestans) | pest or weed control at 200 ppm [1] | inhibition of growth at 200 ppm (Septoria tritici) | inhibition of growth at 200 ppm (Fusarium culmorum) | inhibition of growth at 20 ppm (Pythium ultimum)

C#CCON=CC(C)(C)NC(=O)C(Oc1cc(C)c2ncc(Br)cc2c1)SC (stereo not drawn) [Compound No. 29, 2-(3-Bromo-8-methyl-quinolin-6-yloxy)-N-(1,1-dimethyl-2-prop-2-ynyloxyimino-ethyl)-2-methylsulfanyl-acetamide]
≥ 60%: pest or weed control at 200 ppm (Plasmopara viticola) | pest or weed control at 200 ppm (Phytophthora infestans) | pest or weed control at 200 ppm [1] | pest or weed control at 200 ppm (Septoria nodorum) | inhibition of growth at 200 ppm (Fusarium culmorum) | inhibition of growth at 20 ppm (Pythium ultimum)

CON=CC(C)(C)NC(=O)C(Oc1cc(Cl)c2sccc2c1)SC (stereo not drawn) [Compound No. 83, 2-(7-Chloro-benzo[b]thiophen-5-yloxy)-N-(2-methoxyimino-1,1-dimethyl-ethyl)-2-methylsulfanyl-acetamide]
≥ 60%: pest or weed control at 200 ppm (Plasmopara viticola) | pest or weed control at 200 ppm (Botrytis cinerea) | inhibition of growth at 200 ppm (Septoria tritici)

CCON=C(Cc1ccccc1)C(C)(C)NC(=O)C(Oc1ccc2ncc(Br)cc2c1)SC (stereo not drawn) [Compound No. 122, 2-(3-Bromo-quinolin-6-yloxy)-N-{2-[(E or Z)-ethoxyimino]-1,1-dimethyl-3-phenyl-propyl}-2-methylsulfanyl-acetamide]
≥ 60%: pest or weed control at 200 ppm (Plasmopara viticola) | pest or weed control at 200 ppm (Botrytis cinerea) | inhibition of growth at 200 ppm (Septoria tritici)

CON=CC(C)(C)NC(=O)C(Oc1cc(C)c2ccc(Br)cc2c1)SC (stereo not drawn) [Compound No. 85, 2-(7-bromo-4-methyl-naphthalen-2-yloxy)-N-(2-methoxyimino-1,1-dimethyl-ethyl)-2-methylsulfanyl-acetamide]
≥ 60%: pest or weed control at 200 ppm [1] | pest or weed control at 200 ppm (Botrytis cinerea) | inhibition of growth at 200 ppm (Septoria tritici)

C#Cc1cnc2c(C)cc(OC(SC)C(=O)NC(C)(C)C=NOC)cc2c1 (stereo not drawn) [Compound No. 112, 2-(3-Ethynyl-8-methyl-quinolin-6-yloxy)-N-(2-methoxyimino-1,1-dimethyl-ethyl)-2-methylsulfanyl-acetamide]
≥ 60%: pest or weed control at 200 ppm (Plasmopara viticola) | pest or weed control at 200 ppm (Phytophthora infestans) | pest or weed control at 200 ppm (Septoria nodorum) | inhibition of growth at 200 ppm (Fusarium culmorum) | inhibition of growth at 20 ppm (Pythium ultimum)

C=CCON=C(Cc1ccccn1)C(C)(C)NC(=O)C(Oc1ccc2ncc(Br)cc2c1)SC (stereo not drawn) [Compound No. 129, N-{2-[(E or Z)-Allyloxyimino]-1,1-dimethyl-3-pyridin-2-yl-propyl}-2-(3-bromo-quinolin-6-yloxy)-2-methylsulfanyl-acetamide]
≥ 60%: pest or weed control at 200 ppm (Botrytis cinerea) | inhibition of growth at 200 ppm (Septoria tritici)

CON=C(Cc1ccccc1)C(C)(C)NC(=O)C(Oc1ccc2ncc(Br)cc2c1)SC (stereo not drawn) [Compound No. 121, 2-(3-Bromo-quinolin-6-yloxy)-N-{2-[(E or Z)-methoxyimino]-1,1-dimethyl-3-phenyl-propyl}-2-methylsulfanyl-acetamide]
≥ 60%: pest or weed control at 200 ppm (Plasmopara viticola) | pest or weed control at 200 ppm (Botrytis cinerea) | inhibition of growth at 200 ppm (Septoria tritici)

CON=CC(C)(C)NC(=O)C(Oc1cc(C)c2sccc2c1)SC (stereo not drawn) [Compound No. 84, N-(2-methoxyimino-1,1-dimethyl-ethyl)-2-(7-methyl-benzo[b]thiophen-5-yloxy)-2-methylsulfanyl-acetamide]
≥ 60%: pest or weed control at 200 ppm (Plasmopara viticola) | pest or weed control at 200 ppm (Botrytis cinerea) | inhibition of growth at 200 ppm (Septoria tritici)

CCON=CC(C)(C)NC(=O)C(Oc1cc(Br)c2ncc(Br)cc2c1)SC (stereo not drawn) [Compound No. 33, 2-(3,8-Dibromo-quinolin-6-yloxy)-N-(2-ethoxyimino-1,1-dimethyl-ethyl)-2-methylsulfanyl-acetamide]
≥ 60%: pest or weed control at 200 ppm (Plasmopara viticola) | pest or weed control at 200 ppm (Botrytis cinerea) | inhibition of growth at 200 ppm (Septoria tritici)

CSC(Oc1cc(C)c2ncc(Br)cc2c1)C(=O)NC(C)(C)C=NOc1ccccc1 (stereo not drawn) [Compound No. 23, 2-(3-Bromo-8-methyl-quinolin-6-yloxy)-N-(1,1-dimethyl-2-phenoxyimino-ethyl)-2-methylsulfanyl-acetamide]
≥ 60%: pest or weed control at 200 ppm (Plasmopara viticola) | pest or weed control at 200 ppm (Phytophthora infestans) | pest or weed control at 200 ppm [1] | pest or weed control at 200 ppm (Septoria nodorum) | inhibition of growth at 200 ppm (Fusarium culmorum) | inhibition of growth at 20 ppm (Pythium ultimum)

C#Cc1cnc2c(C)cc(OC(SC)C(=O)NC(C)(C)C=NOCC=C)cc2c1 (stereo not drawn) [Compound No. 114, N-(2-Allyloxyimino-1,1-dimethyl-ethyl)-2-(3-Ethynyl-8-methyl-quinolin-6-yloxy)-2-methylsulfanyl-acetamide]
≥ 60%: pest or weed control at 200 ppm (Plasmopara viticola) | pest or weed control at 200 ppm (Phytophthora infestans) | pest or weed control at 200 ppm [1] | pest or weed control at 200 ppm (Septoria nodorum) | inhibition of growth at 200 ppm (Fusarium culmorum)

C#Cc1cnc2c(C)cc(OC(SC)C(=O)NC(C)(C)C=NOCC)cc2c1 (stereo not drawn) [Compound No. 113, N-(2-Ethoxyimino-1,1-dimethyl-ethyl)-2-(3-Ethynyl-8-methyl-quinolin-6-yloxy)-2-methylsulfanyl-acetamide]
≥ 60%: pest or weed control at 200 ppm (Plasmopara viticola) | pest or weed control at 200 ppm (Phytophthora infestans) | pest or weed control at 200 ppm (Septoria nodorum) | inhibition of growth at 200 ppm (Fusarium culmorum) | inhibition of growth at 20 ppm (Pythium ultimum)

CON=CCC(C)NC(=O)C(Oc1ccc2ncc(I)cc2c1)SC (stereo not drawn) [Compound No. 48, 2-(3-Iodo-quinolin-6-yloxy)-N-(3-methoxyimino-1-methyl-propyl)-2-methylsulfanyl-acetamide]
≥ 60%: pest or weed control at 200 ppm [1] | pest or weed control at 200 ppm (Septoria nodorum) | inhibition of growth at 200 ppm (Septoria tritici) | inhibition of growth at 200 ppm (Fusarium culmorum)

CON=CC(C)(C)NC(=O)C(Oc1cc(C)c2ncc(Br)cc2c1)SC (stereo not drawn) [Compound No. 26, 2-(3-Bromo-8-methyl-quinolin-6-yloxy)-N-(2-methoxyimino-1,1-dimethyl-ethyl)-2-methylsulfanyl-acetamide]
≥ 60%: pest or weed control at 200 ppm (Phytophthora infestans) | pest or weed control at 200 ppm [1] | pest or weed control at 200 ppm (Septoria nodorum) | inhibition of growth at 200 ppm (Septoria tritici) | inhibition of growth at 200 ppm (Fusarium culmorum)

CON=CCC(C)NC(=O)C(Oc1cc(C)c2ncc(I)cc2c1)SC (stereo not drawn) [Compound No. 105, 2-(3-Iodo-8-methyl-quinolin-6-yloxy)-N-(3-methoxyimino-1-methyl-propyl)-2-methylsulfanyl-acetamide]
≥ 60%: pest or weed control at 200 ppm [1] | inhibition of growth at 200 ppm (Septoria tritici) | inhibition of growth at 200 ppm (Fusarium culmorum) | inhibition of growth at 20 ppm (Pythium ultimum)

C=CCON=CC(C)(C)NC(=O)C(Oc1ccc2ncc(I)cc2c1)SC (stereo not drawn) [Compound No. 52, N-(2-Allyloxyimino-1,1-dimethyl-ethyl)-2-(3-iodo-quinolin-6-yloxy)-2-methylsulfanyl-acetamide]
≥ 60%: pest or weed control at 200 ppm (Plasmopara viticola) | pest or weed control at 200 ppm (Phytophthora infestans) | inhibition of growth at 200 ppm (Fusarium culmorum) | inhibition of growth at 20 ppm (Pythium ultimum)

C#Cc1cnc2c(Cl)cc(OC(SC)C(=O)NC(C)(C)C=NOC)cc2c1 (stereo not drawn) [Compound No. 115, 2-(8-Chloro-3-ethynyl-quinolin-6-yloxy)-N-(2-methoxyimino-1,1-dimethyl-ethyl)-2-methylsulfanyl-acetamide]
≥ 60%: pest or weed control at 200 ppm (Plasmopara viticola) | pest or weed control at 200 ppm (Phytophthora infestans) | pest or weed control at 200 ppm [1] | pest or weed control at 200 ppm (Septoria nodorum) | inhibition of growth at 200 ppm (Fusarium culmorum) | inhibition of growth at 20 ppm (Pythium ultimum)

CCCCON=CCC(C)(C)NC(=O)C(Oc1cc(C)c2ncc(I)cc2c1)SC (stereo not drawn) [Compound No. 39, N-(3-Butoxyimino-1,1-dimethyl-propyl)-2-(3-iodo-8-methyl-quinolin-6-yloxy)-2-methylsulfanylacetamide]
≥ 60%: pest or weed control at 200 ppm (Botrytis cinerea) | inhibition of growth at 200 ppm (Septoria tritici)

CON=CC(C)(C)NC(=O)C(Oc1cc(Cl)c2ncc(I)cc2c1)SC (stereo not drawn) [Compound No. 106, 2-(8-Chloro-3-iodo-quinolin-6-yloxy)-N-(2-methoxyimino-1,1-dimethyl-ethyl)-2-methylsulfanyl-acetamide]
≥ 60%: pest or weed control at 200 ppm (Plasmopara viticola) | pest or weed control at 200 ppm (Botrytis cinerea) | inhibition of growth at 200 ppm (Septoria tritici)

C=CCON=CCC(C)(C)NC(=O)C(Oc1cc(C)c2ncc(I)cc2c1)SC (stereo not drawn) [Compound No. 40, N-(3-Allyloxyimino-1,1-dimethyl-propyl)-2-(3-iodo-8-methyl-quinolin-6-yloxy)-2-methylsulfanyl-acetamide]
≥ 60%: pest or weed control at 200 ppm (Plasmopara viticola) | pest or weed control at 200 ppm (Botrytis cinerea) | inhibition of growth at 200 ppm (Septoria tritici)
